The values below come from ChEMBL document CHEMBL4385663, “Discovery of novel PTHR1 antagonists: Design, synthesis, and structure activity relationships” (Bioorg Med Chem Lett, 2019).

The target in series [1] is T1, Parathyroid hormone/parathyroid hormone-related peptide receptor (Homo sapiens, UniProt Q03431).
T1 sequence (Q03431 whole entry): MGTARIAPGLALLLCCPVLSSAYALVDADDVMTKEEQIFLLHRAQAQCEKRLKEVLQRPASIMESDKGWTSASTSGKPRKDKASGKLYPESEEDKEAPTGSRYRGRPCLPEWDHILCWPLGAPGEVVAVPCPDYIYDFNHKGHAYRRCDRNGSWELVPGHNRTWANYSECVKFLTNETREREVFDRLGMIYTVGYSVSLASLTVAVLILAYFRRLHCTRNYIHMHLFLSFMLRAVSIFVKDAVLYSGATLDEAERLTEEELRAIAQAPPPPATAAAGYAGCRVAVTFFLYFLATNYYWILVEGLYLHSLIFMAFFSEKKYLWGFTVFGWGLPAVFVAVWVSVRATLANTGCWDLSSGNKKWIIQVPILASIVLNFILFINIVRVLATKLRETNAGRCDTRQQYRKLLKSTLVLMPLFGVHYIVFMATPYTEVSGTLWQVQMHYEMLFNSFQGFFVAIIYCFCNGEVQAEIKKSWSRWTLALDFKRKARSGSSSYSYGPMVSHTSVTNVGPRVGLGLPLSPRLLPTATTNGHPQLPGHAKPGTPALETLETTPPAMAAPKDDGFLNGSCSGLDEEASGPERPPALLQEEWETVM
Description: Antagonist activity at human PTHR1 expressed in CHOK1 cells co-expressing Gs/Gq assessed as reduction in human PTH (1 to 34 residues)-induced cAMP accumulation incubated for 30 mins by HTRF assay

A further series can be described thus: physchem. The conditions noted are these: 1-octanol/phosphate buffered saline, pH 7.4.
Series [2] can be described thus: Protein binding in rat plasma assessed as unbound fraction. The class given is ADME, cell-free.
Series [3] can be described thus: Oral bioavailability in Sprague-Dawley rat at 10 mg/kg. The conditions noted are these: in vivo. The class given is ADME, organism-based.
The nature of series [4]: Solubility of the compound in JP1 buffer at pH 1.2. The class given is physicochemical.
The nature of series [5]: Clearance in Sprague-Dawley rat at 1 mg/kg, iv. In kind it is ADME, organism-based. The conditions noted are these: in vivo.
A short description of another series: in vitro. The conditions noted are these: rat, liver microsomes. (In general: Microsomes from liver hold many membrane-bound enzymes, among them those of drug oxidation.)
Series [6] is described as follows: Solubility of the compound in JP2 buffer at pH 6.8. The class given is physicochemical.
Series [7] can be described thus: AUClast in Sprague-Dawley rat at 10 mg/kg, po. In kind it is ADME, organism-based. The conditions noted are these: in vivo. Further details: dose 10 mg/kg, time 0 - last, route oral.
Series [8] in a line: Volume of distribution in Sprague-Dawley rat at 1 mg/kg, iv. The class given is ADME, organism-based. To be noted: in vivo.
Series [9] in a line: Half life in Sprague-Dawley rat at 10 mg/kg, po. The class given is ADME, organism-based. To be noted: in vivo.

Values after ≈ are worked out from the molar mass of the structure shown. Where only a bound is given, the exact number is not on record here.

Description for in vitro: Metabolic stability in rat liver microsomes assessed as parent compound remaining after 0.5 hrs
Description for physchem: Distribution coefficient, log D of the compound in 1-octanol and phosphate buffered saline at pH 7.4

Take `CC(C)C1(C)N=C(C2CCCCC2)c2ccc(Cl)cc2N(c2ccc(NCCN)cc2)C1=O` (stereo not drawn): the IC50 in series [1] is 6.8 µM.
In the case of `NCCNc1ccc(N2C(=O)CN(C3CCCCC3)C(=O)c3ccc(Cl)cc32)cc1`, in [1], the IC50 is greater than 100 µM.
Same read-out and setting: next, `CC1(C)N=C(C2CCCCC2)c2ccc(C#N)cc2N(c2ccc(CCCN)cc2)C1=O`: 7.6 µM; `Cc1ccc2c(c1)N(c1ccc(NCCN)cc1)C(=O)C(C)(C)N=C2C1CCCCC1`: 6.1 µM.
In “physchem”, `NCCNc1ccc(N2C(=O)CN(C3CCCCC3)Cc3ccc(Cl)cc32)cc1` had a logD of 1.4. In series [1], this molecule came in with an IC50 greater than 100 µM.
In “physchem”, `CC1(C)N=C(C2CCCCC2)c2ccc(C#N)cc2N(c2ccc(NCCNC3CCOCC3)cc2)C1=O` returned a logD of 2.9. Also, the fraction unbound in [2] turned out to be 0.029. In addition, the bioavailability in series [3] amounted to 27%. In addition, the solubility in series [4] was determined as 760 µg/mL (≈ 1480 µM); in series [6] it was 500 µg/mL (≈ 973 µM). In series [5], this molecule came in with a clearance of 46.8 mL/min/kg. Moreover, in the series “in vitro”, the fraction remaining at 0.5 h worked out at 28%. The IC50 in series [1] turned out to be 0.09 µM. In addition, the AUC(0-t) in [7] came out at 1940 ng·h/mL. This molecule had a Vd in [8] of 4.7 L/kg. Moreover, the half-life in series [9] was 4.23 h.
The molecule `CC(C)N1N=C(C2CCCCC2)c2ccc(Cl)cc2N(c2ccc(CC3=NCCN3)cc2)C1=O` registered a logD in the series “physchem” of 4.2. The same molecule displayed an IC50 in series [1] of 9.4 µM.
`COc1ccc2c(c1)N(c1ccc(NCCN)cc1)C(=O)C(C)(C)N=C2C1CCCCC1` came in with an IC50 in series [1] of 14 µM.
Still for that read-out and setting: next, `CC(C)C1N=C(C2CCCCC2)c2ccc(Cl)cc2N(c2ccc(NCCN)cc2)C1=O` (stereo not drawn): 14 µM.
The molecule `CC1(C)N=C(C2CCCCC2)c2ccc(C#N)cc2N(c2ccc(NCCN)cc2)C1=O` showed a logD in the series “physchem” of 2.1. This molecule also returned an IC50 in [1] of 0.73 µM.
In the case of `CC1(C)N=C(C2CCCCC2)c2ccc(C#N)cc2N(c2ccc(NCCNC3CCCCC3)cc2)C1=O`, in [1], half-maximal inhibition (IC50) required 2.3 µM.
Same read-out and setting: next, `CN(C)C1N=C(C2CCCCC2)c2ccc(Cl)cc2N(c2ccc(NCCN)cc2)C1=O` (stereo not drawn): 44 µM.
With `NCCNc1ccc(N2C(=O)CN=C(C3CCCCC3)c3ccc(Cl)cc32)cc1`, in “physchem”, the pH-dependent lipophilicity (logD) came to 1.7. In series [1], this molecule had an IC50 of 38 µM.
With `CC1(C)N=C(C2CCCCC2)c2ccc(C#N)cc2N(c2ccc(OCCN)cc2)C1=O`, in [1], the IC50 was 4 µM.
The same measure, in the same setting: the same measure for `CC1(C)N=C(c2ccccc2)c2ccc(Cl)cc2N(c2ccc(NCCN)cc2)C1=O`: 45 µM.
Take `CC(C)CC1=NC(C)(C)C(=O)N(c2ccc(NCCN)cc2)c2cc(Cl)ccc21`: the IC50 in series [1] came out at 23 µM.
`CC1(C)N=C(C2CCCCC2)c2ccc(C#N)cc2N(c2ccc(NCCNC3CCN(S(C)(=O)=O)CC3)cc2)C1=O` gave an IC50 in series [1] of 0.18 µM.
Same read-out and setting: the same measure for `CC1(C)N=C(C2CCCCC2)c2ccc(C#N)cc2N(c2ccc(NCCCN)cc2)C1=O`: 4.1 µM; for `CC1(C2=NC(C)(C)C(=O)N(c3ccc(NCCN)cc3)c3cc(Cl)ccc32)CCCCC1`: 16 µM.

As a reminder, the IC50 is the concentration needed to halve the response being measured. A higher IC50 goes with weaker potency in that assay. In general, logD refers to lipophilicity at a set pH, counting ionised and neutral species. Lower therefore signals a more hydrophilic compound. Broadly, the fraction unbound is free concentration divided by total concentration. The bioavailability is dose-corrected exposure relative to a reference, in per cent. Higher therefore signals much systemic uptake. One may read the solubility as the dissolved amount per volume that the medium holds. Usually clearance stands for the volume of plasma or blood freed of the substance per unit of time. In general, fraction remaining refers to the share of the starting amount still present when the sample was taken. A low value points to a greater loss. A word on the AUC(0-t): it is exposure summed from dosing to a finite time, without extrapolation to infinity. Low readings indicate less exposure, high ones more exposure. Usually Vd stands for a proportionality between amount in the body and measured concentration, not a real space. Higher therefore signals wide distribution into tissue. Usually half-life stands for the time needed for the level to fall by half in the phase considered. Lower therefore signals fast loss.
